Test results as given in patent publication US5376658A, “5,10-methylene-tetrahydrofolate as a modulator of a chemotherapeutic agent” (priority 1993, dated 1994).
Each block holds one compound with its values, some of them ahead of it.

Columns and labels:
CCRF-CEM cells = experiment: Intracellular CH2 FH4 and FH4 levels in CCRF-CEM cells after exposure to 10 μM folate; format: cell-based, human; conditions: for Intracellular FH4: control 3.08
Description: In further support of the hypothesis that objectives of CH2 FH4 administration are increases in FH4 and FH4 /CH2 FH4 values, are the results of a cell culture study, shown in Table VI, comparing the relative effectiveness of different folate forms on assayed intracellular levels of the two folates.

L. casei TS-[3H]FdUMP = target: T1, L. casei TS-[3H]FdUMP (Lacticaseibacillus casei, UniProt P00469); experiment: TS-[3H]FdUMP-folate ternary complex binding assay
T1 sequence (P00469 1-316): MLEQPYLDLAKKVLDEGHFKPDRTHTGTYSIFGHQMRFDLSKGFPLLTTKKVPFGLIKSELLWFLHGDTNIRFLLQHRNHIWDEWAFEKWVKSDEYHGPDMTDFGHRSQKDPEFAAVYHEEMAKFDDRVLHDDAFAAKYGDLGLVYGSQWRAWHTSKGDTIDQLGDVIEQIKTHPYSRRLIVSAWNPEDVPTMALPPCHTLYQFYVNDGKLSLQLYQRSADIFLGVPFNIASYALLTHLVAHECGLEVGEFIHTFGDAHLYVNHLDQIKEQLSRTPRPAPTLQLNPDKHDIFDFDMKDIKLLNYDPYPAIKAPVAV
Method: The CH2 FH4 was prepared as the racemic (6R, S) material from (6R, S)-FH4 and excess formaldehyde, and DEAE-column isolation as described in FIG. 1. This preparation was essentially free of free formaldehyde based on colorimetric assay of bulk material (Nash, Biochem. J. 55:416-21 (1953)).
At all concentrations (total assays volume 150 μl ), excess formaldeyde was required to obtain maximal binding (which was still only 19.3% of stoichiometric binding). A notable effect was the increasing need for formaldehyde addition with increasing dilution, to obtain maximal CH2 FH4 assay recovery.
TS[^3 H]FdUMP-folate ternary complex formation without formaldehyde
addition was 38.5% of the value for the natural (6R)CH2 FH4 wit
6 mM formaldehyde added. (About 1 pmole of parent CH2 FH4 was
^b Only 11.8 ± 7.9% of maximal L. casei TS[^3 H]FdUMP-folate
ternary complex formation (using 6 mM formaldehyde concentration) which i
The unnatural diastereomer, (6S)-CH2 FH4 prepared by DEAE-column,potassium bicarbonate separation from the natural diasteromer as described in Example 8, was dissolved in 0.2M Tris-HCl buffer, pH 7.0, containing sodium ascorbate (100 mM) and 2-mercaptoethanol. This preparation was from the same lot of material described in Example 8. As noted in the footnote of Table VII, in the absence of supplemental formaldehyde, the yield of dextrancharcoal isolated complex was 38.5% of the value for the natural (6R)-CH2 FH4 (with added 6 mM formaldehyde).

[1] = tested on: transplanted colon cancer; experiment: Comparison of natural and unnatural CH2 FH4 diastereomers in rats bearing transplanted colon cancer; format: in vivo, rat; conditions: 15 mg/kg, Day 17, no fluorinated pyrimidine
Description: A study has been completed, for comparison of natural (6R)-CH2 FH4 and unnatural (6S)-CH2 FH4 diastereomers. The preparation of the two forms was done as described by Kisliuk, et al., Cancer Treat. Rep. 61:647-50 (1977), using DEAE-cellulose column chromatography, with elution by potassium bicarbonate buffer. The two separate major peaks were individually pooled, lyophilized to dryness, and used for injection. As in the original detailed description of the method of Kisliuk, et al. (Biochem. 20:929-934), the methylene content was substoichiometric with tetrahydrofolate (FH4). That is, methylene units were present in apparently lower concentration than FH4 concentrations.
Rats bearing the transplanted colon cancer, as described in Example 4 and in Carlsson, et al., Anticancer. Res. 10:813-816, 1991, were treated with either the (6R)-CH2 FH4 or the (6S)-CH2 FH4, formulated and injected according to the methods described in Table IV, except that the injected amounts were 15 mg/kg per dose.
At Day 17, the rats were sacrificed, and the tumors were measured for both volume end weight. Volumes were calculated by the equation for an ellipsoid in revolution, V=(4/3)πab^2 were a=the long diameter/2 and b=the perpendicular short diameter/2.
The filled circles are the weights and volumes of tumors of rats treated with the unnatural (6S)-CH2 FH4 diastereomer (mostly (6R)-FH4 material in dilute solution and blood); the triangles are results for the natural (6R)-CH2 FH4 (mostly (6S)-FH4); and the open circles, control non-treated tumors. It is emphasized here that no fluorinated pyrimidine was used, just the folate injections.

[2] = tested on: thymidylate synthase (TS); experiment: TS level in serial tumor biopsies, patient three (skin metastasis from gastric carcinoma), [6-3H]FdUMP ligand-binding assay; format: in vivo, human; conditions: for TS, % of Baseline / Thymidylate synthase (TS): 30 mg IV; for Thymidylate synthase (TS): baseline 1.31
Method: The assays were performed by the methods described in Spears et al., Adv. […] The serial biopsies were done following single dose administration of CH2 FH4.
The assays were also performed on the day of CH2 FH4 administration.

[3] = tested on: thymidylate synthase (TS); experiment: TS level in serial tumor biopsies, patient one (rectal adenocarcinoma), [6-3H]FdUMP ligand-binding assay; format: in vivo, human
Method: CH2 FH4 was formulated, assayed, and administered to 2 patients who had previously been treated with 5-FU. The assays were performed by the methods described in Spears et al., Adv. Exp. Med. Biol. 244:98-104 (1988). In the data shown, the TS inhibition profiles that resulted from CH2 FH4 administration were not due to concurrent 5-FU dosing. The most recent exposure to 5-FU in these cases was slightly greater than a week prior to the study date, with the patients eligible, however, from the standpoint of toxicity evaluation to receive the weekly dose of 5-FU. Thus, residual FdUMP levels from previous exposure, below the detectable limits for assay, were expected to be present (See spears et al. Mol. Pharmacol. 27:302-07 (1985)). The serial biopsies were done following single dose administration of CH2 FH4.
The formulation of CH2 FH4 was as described in Example 2, and was performed on the day of CH2 FH4 administration. The assays were also performed on the day of CH2 FH4 administration.
^a On Week #1 the CH2 FH4 was formulated at pH 2.0,
DEAEpurified; On Week #2 the preparation was pH 9.0, with 6 mM (final
concentration) CH2 O added, no DEAE step used.
^c By [6^3 H]FdUMP ligandbinding assay (Spears et al., Cancer Res
In patient one, a person with locally unresectable advanced rectal adenocarcinoma, the TS pharmacodynamic tumor tissue analyses were done twice, nine days apart. Following study, the person continued to receive intermittent bolus 5-FU. […] There were modifications of the CH2 FH4 formulation between the 2 pharmacodynamic studies (See Table III). In the first study week, the pH was not adjusted up from 2.0, after DEAE column isolation of the Sigma (6R,S)-CH2 FH4. Thus, some of this folate may also have been 5,10-methenyl-tetrahydrofolate. In the second study week, the pH was adjusted up to 9.0, and no DEAE step was used (with therefore 6 mM formaldehyde being present in the 40-cc volume for injection).

[4] = cited from earlier work
[5] = tested on: CH2 FH4 and FH4 in breast cancer biopsies; experiment: CH2 FH4 and FH4 levels in breast cancer biopsies during L-serine infusion after high-dose (6R,S)-leucovorin; format: in vivo, human; set-up: CH2 FH4 / FH4: unit not given here; conditions: patient two
Method: As noted previously (see pages 5-6) and mentioned in C. P. Spears, et al., Proc. Am. Soc. Clin. Oncol. 8:69 (1989), the inventors have used pharmacologic intervention to convert intracellular FH4 to CH2 FH4 in patients receiving high-dose reduced folate therapy combined with weekly i.v. bolus 5-FU, 450 mg/sq. m. The method used was administration of i.v. L-serine, 15.0 grams, over 1 hour after the end of overnight high-dose (6R,S)-leucovorin i.v. infusion.
In contrast to the data shown in Tables II and III, the inventors were able to also assay for intratumoral FH4 in addition to CH2 FH4 (this latter is also referred to as "FBC" in those Tables or Folate-Binding Capacity), at time points during this pharmacologic forcing of metabolism of FH4 to CH2 FH4 through the enzyme, serine hydroxymethyltransferase. This enzyme splits a carbon of L-serine to generate formaldehyde in the presence of FH4.
^a Minutes after initiation of 15.0 gram LSerine i.v. 60min infusion,
after end of overnight (6R,S)leucovorin highdose i.v. infusion.
^b Assays performed as described (C.P. Spears et al., Adv. Exp. Med.

[6] = 0 min (start of L-serine, after overnight leucovorin)

SMILES: Nc1nc2c(c(=O)[nH]1)N=C(CNc1ccc(C(=O)N[C@@H](CCC(=O)O)C(=O)O)cc1)CN2 [DHF, Dihydrofolate]
- Intracellular FH4 (CCRF-CEM cells; 16-hr exposure): 7.10 nmole/10^9 Cells

- % of maximal L. casei TS-[3H]FdUMP-folate ternary complex formation (L. casei TS-[3H]FdUMP; maximal = using 6 mM formaldehyde): 11.8 ± 7.9%
SMILES: Nc1nc2c(c(=O)[nH]1)N1CN(c3ccc(C(=O)N[C@@H](CCC(=O)O)C(=O)O)cc3)C[C@H]1CN2 [(6R)-CH2 FH4]
- Intracellular CH2 FH4 (CCRF-CEM cells; 90 min exposure, control 0.04): 0.19 nmole/10^9 Cells
- Intracellular FH4 (CCRF-CEM cells; 90 min exposure): 8.81 nmole/10^9 Cells
- Tumor volume ± SE ([1]; control 7.81): 12.58
- Tumor weight ± SE ([1]; control 7.93): 9.11

SMILES: Nc1nc2c(c(=O)[nH]1)N1CN(c3ccc(C(=O)N[C@@H](CCC(=O)O)C(=O)O)cc3)CC1CN2 (stereo partly shown) [CH2 FH4, 5,10-methylene-tetrahydrofolate]
- TS, % of Baseline ([2]; 10 min): 19.8%
- TS, % of Baseline ([2]; 20 min): 42.7%
- TS, % of Baseline ([2]; 40 min): 75.6%
- TS, % of Baseline ([2]; 60 min): 112.2%
- Thymidylate synthase (TS) ([2]; biopsy at 10 min): 0.26 pmol/g
- Thymidylate synthase (TS) ([2]; biopsy at 20 min): 0.56 pmol/g
- Thymidylate synthase (TS) ([2]; biopsy at 40 min): 0.99 pmol/g
- Thymidylate synthase (TS) ([2]; biopsy at 60 min): 1.47 pmol/g
- TS inhibition / decrease over baseline value ([2]; 10 min (first biopsy)): 80.2%
- TS inhibition ([2]; 20 min): 57.3%
- TS, % of Baseline ([3]; Week #1, 35 mg IV, 10 min): 212.4%
- Thymidylate synthase (TS) ([3]; Week #1, 35 mg IV, 10 min, baseline 5.77): 6.28 pmol/g
- TS, % of Baseline ([3]; Week #1, 35 mg IV, 20 min): 43.7%
- Thymidylate synthase (TS) ([3]; Week #1, 35 mg IV, 20 min, baseline 5.77): 2.26 pmol/g
- TS, % of Baseline ([3]; Week #1, 35 mg IV, 30 min): 114.1%
- Thymidylate synthase (TS) ([3]; Week #1, 35 mg IV, 30 min, baseline 5.77): 5.90 pmol/g
- TS, % of Baseline ([3]; Week #1, 35 mg IV, 24 hr): 122.2%
- Thymidylate synthase (TS) ([3]; Week #1, 35 mg IV, 24 hr, baseline 5.77): 6.32 pmol/g
- TS, % of Baseline ([3]; Week #2, 50 mg IV, 10 min): 181.7%
- Thymidylate synthase (TS) ([3]; Week #2, 50 mg IV, 10 min, baseline 5.64): 10.25 pmol/g
- TS, % of Baseline ([3]; Week #2, 50 mg IV, 20 min): 104.8%
- Thymidylate synthase (TS) ([3]; Week #2, 50 mg IV, 20 min, baseline 5.64): 5.91 pmol/g
- TS, % of Baseline ([3]; Week #2, 50 mg IV, 30 min): 35.8%
- Thymidylate synthase (TS) ([3]; Week #2, 50 mg IV, 30 min, baseline 5.64): 2.02 pmol/g
- TS, % of Baseline ([3]; Week #2, 50 mg IV, 40 min): 61.3%
- Thymidylate synthase (TS) ([3]; Week #2, 50 mg IV, 40 min, baseline 5.64): 3.46 pmol/g
- maximal binding, % of stoichiometric binding (L. casei TS-[3H]FdUMP; 0.2M Tris pH 7.4, excess formaldehyde (6 mM)): 19.3%
- storage stability in solution ([4]; column-isolated, under argon at -80° C.): up to a year without decomposition
- stability in the presence of oxygen ([4]; solutions and powder, oxygen, catalyzed by light, acid, base, heavy metals): unstable

SMILES: Nc1nc2c(c(=O)[nH]1)N(C=O)[C@@H](CNc1ccc(C(=O)N[C@@H](CCC(=O)O)C(=O)O)cc1)CN2 [(6S)-LV]
- Intracellular FH4 (CCRF-CEM cells; 16-hr exposure): 10.64 nmole/10^9 Cells

SMILES: CN1c2c(nc(N)[nH]c2=O)NC[C@H]1CNc1ccc(C(=O)N[C@@H](CCC(=O)O)C(=O)O)cc1 [(6R,S)-MTHF, 5-methyl-(6R, S)-tetrahydrofolate]
- Intracellular FH4 (CCRF-CEM cells; 16-hr exposure): 10.55 nmole/10^9 Cells

SMILES: Nc1nc2c(c(=O)[nH]1)N(C=O)[C@H](CNc1ccc(C(=O)N[C@@H](CCC(=O)O)C(=O)O)cc1)CN2 [LV, (6R,S)-5-formyl-tetrahydrofolate]
- Ratio of FH4/CH2 FH4 ([5]; 0 min): 12.2
- CH2 FH4 [5, 6]: 0.194
- FH4 [5, 6]: 2.370
